The record followed here is patent publication US7384952B2, “Pyrazolopyrimidine compound and a process for preparing the same” (Mitsubishi Tanabe Pharma Corporation, priority 2003, dated 2008).

The assay deals with SK channel. Briefly: competitive apamin-binding inhibition assay (same manner as WO02/079189, Experiment 1). The conditions noted are these: competitive binding assay against apamin, a selective SK channel blocker; read-out: apamin-binding inhibitory activity (IC50).

Broadly, the IC50 is the midpoint of a concentration-inhibition curve. Consider `CCOc1cccc(Cn2ncc3c(N4CCN(C(=O)c5ccc(N(CCN(C)C)C(=O)C6CC6)cc5)CC4)ncnc32)c1` [1-(3-ethoxybenzyl)-4-[4-[4-[N-(cyclopropyl-carbonyl)-N-[2-(dimethylamino)ethyl]amino]benzoyl]piperazin-1-yl]-1H-pyrazolo[3,4-d]pyrimidine], for which the concentration for half-maximal inhibition (IC50) turned out to be 50 nM.
